Data taken from ChEMBL document CHEMBL3272278, “Electronic factors in the structure-activity relationship of some 1,4-benzodiazepin-2-ones” (1977).
Active and inactive are the calls of the source. No cut-off for these calls is given here.

Assays:
Felis catus [1] = species on record: Felis catus; assay: Muscle relaxant activity in cat suspended by scruff of neck assessed as relaxation of body and hind legs; format: functional
Mus musculus [2] = species on record: Mus musculus; assay: Muscle relaxant activity in mouse; format: functional
Felis catus [3] = species on record: Felis catus; assay: Sedative activity in cat; format: functional, organism-based
Mus musculus [4] = species on record: Mus musculus; assay: Sedative activity in mouse; format: functional
Mus musculus [5] = species on record: Mus musculus; assay: Taming activity in mouse assessed as suppression of electrical current-induced aggressive behavior by foot-shock test; format: functional
Mus musculus [6] = species on record: Mus musculus; assay: Anticonvulsion activity in mouse assessed as protection against pentylenetetrazole-induced convulsion; format: functional

O=C1CN=C(c2ccc(Cl)cc2Cl)c2cc(Cl)ccc2N1
Activity (Felis catus [1]): inactive | Activity (Mus musculus [2]): inactive | Activity (Felis catus [3]): inactive | Activity (Mus musculus [4]): inactive | Activity (Mus musculus [5]): inactive | log(1/ED50) (Mus musculus [6]): -0.3724

O=C1CN=C(c2ccccc2)c2ccccc2N1 [RO-052921]
Activity (Felis catus [1]): inactive | log(1/ED50) (Mus musculus [2]): 0.1968 | Activity (Felis catus [3]): inactive | log(1/ED50) (Mus musculus [4]): 0.1968 | log(1/MED) (Mus musculus [5]): 0.3729 | Activity (Mus musculus [6]): inactive

O=C1CN=C(c2ccc(F)cc2)c2cc(Cl)ccc2N1
Activity (Felis catus [1]): inactive | Activity (Mus musculus [2]): inactive | Activity (Felis catus [3]): inactive | Activity (Mus musculus [4]): inactive | Activity (Mus musculus [5]): inactive | Activity (Mus musculus [6]): inactive

CN1C(=O)CN=C(c2ccccc2F)c2cc([N+](=O)[O-])ccc21 [FLUNITRAZEPAM]
log(1/MED) (Felis catus [1]): 4.1945 | log(1/ED50) (Mus musculus [2]): 2.4955 | log(1/ED50) (Mus musculus [4]): 2.4955 | log(1/MED) (Mus musculus [5]): 2.5925 | log(1/ED50) (Mus musculus [6]): 2.4164

O=C1CN=C(c2ccccc2)c2cc([N+](=O)[O-])ccc2N1 [NITRAZEPAM]
log(1/MED) (Felis catus [1]): 3.4487 | log(1/ED50) (Mus musculus [2]): 1.2726 | log(1/ED50) (Mus musculus [4]): 1.2726 | log(1/MED) (Mus musculus [5]): 1.7497 | log(1/ED50) (Mus musculus [6]): 2.7497

O=C1CN=C(c2ccccc2Cl)c2cc(Cl)ccc2N1 [DELORAZEPAM]
log(1/MED) (Felis catus [1]): 3.4842 | log(1/ED50) (Mus musculus [2]): 0.4842 | log(1/ED50) (Mus musculus [4]): 0.4842 | log(1/MED) (Mus musculus [5]): 0.8821 | ED50 (Mus musculus [5]; Mus musculus): 2 mg/kg | log(1/ED50) (Mus musculus [6]): 2.8821

N#Cc1ccc2c(c1)C(c1ccccc1F)=NCC(=O)N2
log(1/MED) (Felis catus [1]): 3.7466 | log(1/ED50) (Mus musculus [2]): 0.5705 | log(1/ED50) (Mus musculus [4]): 0.5705 | log(1/MED) (Mus musculus [5]): 1.7466 | log(1/ED50) (Mus musculus [6]): 2.6327

CSc1ccc2c(c1)C(c1ccccc1)=NCC(=O)N2C
log(1/MED) (Felis catus [1]): 2.4714 | log(1/ED50) (Mus musculus [2]): 0.7724 | log(1/ED50) (Mus musculus [4]): 0.7724 | log(1/MED) (Mus musculus [5]): 0.8693 | log(1/ED50) (Mus musculus [6]): 0.5963

CN(C)c1ccc2c(c1)C(c1ccccc1Cl)=NCC(=O)N2C
log(1/MED) (Felis catus [1]): 1.9131 | log(1/ED50) (Mus musculus [2]): 0.3391 | log(1/ED50) (Mus musculus [4]): 0.3391 | log(1/MED) (Mus musculus [5]): 0.6121 | log(1/ED50) (Mus musculus [6]): 2.8162

O=C1CN=C(c2ccccc2F)c2cc(Br)ccc2N1
log(1/MED) (Felis catus [1]): 3.8233 | log(1/ED50) (Mus musculus [2]): 1.5223 | log(1/ED50) (Mus musculus [4]): 1.5223 | log(1/MED) (Mus musculus [5]): 2.1244 | log(1/ED50) (Mus musculus [6]): 2.8233

CN1C(=O)CN=C(c2ccccc2)c2cc([N+](=O)[O-])ccc21 [NIMETAZEPAM]
log(1/MED) (Felis catus [1]): 3.4698 | log(1/ED50) (Mus musculus [2]): 1.4698 | log(1/ED50) (Mus musculus [4]): 1.4698 | log(1/MED) (Mus musculus [5]): 2.0719 | log(1/ED50) (Mus musculus [6]): 2.6917

O=C1CN=C(c2ccccc2F)c2cc([N+](=O)[O-])ccc2N1
log(1/MED) (Felis catus [1]): 3.7767 | log(1/ED50) (Mus musculus [2]): 1.8736 | log(1/ED50) (Mus musculus [4]): 1.8736 | log(1/MED) (Mus musculus [5]): 2.1746 | log(1/ED50) (Mus musculus [6]): 2.4934 | ED50 (Mus musculus [6]; Mus musculus): 0.3 mg/kg

CN1C(=O)CN=C(c2ccccc2F)c2cc(Cl)ccc21 [FLUDIAZEPAM]
log(1/MED) (Felis catus [1]): 3.7817 | log(1/ED50) (Mus musculus [2]): 1.4807 | log(1/ED50) (Mus musculus [4]): 1.4807 | log(1/MED) (Mus musculus [5]): 1.7817 | log(1/ED50) (Mus musculus [6]): 2.8766

O=C1CN=C(c2ccccc2C(F)(F)F)c2cc([N+](=O)[O-])ccc2N1
log(1/MED) (Felis catus [1]): 3.5424 | log(1/ED50) (Mus musculus [2]): 0.5428 | log(1/ED50) (Mus musculus [4]): 0.5428 | log(1/MED) (Mus musculus [5]): 1.5428 | log(1/ED50) (Mus musculus [6]): 2.6977

CN1C(=O)CN=C(c2ccccc2F)c2ccccc21 [RO-054520]
log(1/MED) (Felis catus [1]): 2.4281 | log(1/ED50) (Mus musculus [2]): 0.1271 | log(1/ED50) (Mus musculus [4]): 0.1271 | log(1/MED) (Mus musculus [5]): 0.8261 | log(1/ED50) (Mus musculus [6]): 1.525

Cc1ccccc1C1=NCC(=O)Nc2ccc(Cl)cc21
log(1/MED) (Felis catus [1]): 2.755 | log(1/ED50) (Mus musculus [2]): 0.2779 | log(1/ED50) (Mus musculus [4]): 0.2779 | log(1/MED) (Mus musculus [5]): 0.454 | log(1/ED50) (Mus musculus [6]): 1.5675
